Laboratory results from patent US11535599B2, “Benzisoxazole derivative” (Sumitomo Pharma Co., Ltd., priority 2020, dated 2022).

Tests used:
[1] = tested on: tacrine-induced Parkinson's disease tremor model; test: Anti-tremor effect in tacrine-induced Parkinson's disease tremor model; assay type: in vivo, rat; settings: Example 1 10-100 mg/kg, Example 13 3-100 mg/kg oral; tacrine 2.5 mg/kg i.p.; counted 10 minutes
From the text: One of the causes of tremor in Parkinson's disease is thought to be a decrease of intracerebral dopamine content, said decrease can hyper-activate the cholinergic nervous system in a counteractive manner to cause the symptom. In the present model, an acetylcholinesterase inhibitor activates the cholinergic nervous system, which breaks down the balance between intracerebral dopamine and acetylcholine to initiate a tremor symptom. Thus, the model is well known as a drug-induced model suffering from tremor in Parkinson's disease. With the present model, the effect of the present compound for inhibiting the tremor in Parkinson's disease was evaluated.
In the present test, male Slc: SD rats (Japan SLC, Inc.) were used. The present compound (Example 1 (10 mg/kg, 30 mg/kg, or 100 mg/kg), Example 13 (3 mg/kg, 10 mg/kg, 30 mg/kg, or 100 mg/kg)) was orally administered to the rat. One hour later, tacrine (2.5 mg/kg) was intraperitoneally administered to the rat. Ten minutes after the administration of tacrine, the number of tremulous jaw movements was counted for 10 minutes.

[2] = tested on: harmaline-induced essential tremor model; test: Anti-tremor effect in harmaline-induced essential tremor model; assay type: in vivo, mouse; settings: Examples 1, 13: 25 or 50 mg/kg, Example 14: 3.125-25 mg/kg oral; β-propranolol 10 mg/kg i.p.
Procedure: As an animal model of essential tremor, an animal administrated with harmaline is broadly used in its evaluation test. […] The effect of the present compounds for harmaline-acute-administration-induced tremor was studied. To male Crl: CD1 mice (6-7 weeks old) (CHARLES RIVER LABORATORIES JAPAN, INC.), harmaline (30 mg/kg) was intraperitoneally administered to induce tremor. The present compound (Example 1 (25 mg/kg or 50 mg/kg), Example 13 (25 mg/kg or 50 mg/kg), or Example 14 (3.125 mg/kg, 6.25 mg/kg, 12.5 mg/kg, or 25 mg/kg)) was orally administered to the mouse one hour before the administration of harmaline. And, saline or β-propranolol (10 mg/kg) which is a positive control compound was intraperitoneally administered to the mouse 20 minutes before the administration of harmaline. 35 minutes before the administration of harmaline, the mouse was put into a measurement cage (an acrylic cylinder set in a horizontal direction, φ 65 mm, length 145 mm), one cage to one mouse, said measurement cage was in a soundproof box of a startle response instrument (O'hara & Co., Ltd., Tokyo). The trembling that the mouse gave were recorded over time as tremor data. The animal was put into cage, and the data were recorded for 20 minutes just before (PRE) and just after (POST) the administration of harmaline. The time-series signal data were analyzed about frequency with an analysis software, VitalTracer and BIMUTAS II-A (both, Kissei Comtech Co., Ltd., Matsumoto-shi). At 12-15 Hz or 12-18 Hz as a frequency which increases with tremor, the spectrum amounts were extracted, and the tremor intensity T of each subject was calculated according to the following formula. T=POST/PRE

[3] = tested on: unilateral lesion model of nigrostriatal dopamine neuron induced with 6-OHDA; test: Extending duration of levodopa-induced rotational behavior in 6-OHDA unilateral lesion model; assay type: in vivo, rat; settings: Examples 10 or 30 mg/kg oral; rasagiline 0.6 mg/kg; with levodopa 5 mg/kg i.p.
[4] = molecular target: human Cav3.2 (Homo sapiens (Human), UniProt O95180); test: T-type calcium channel inhibitory activity, whole-cell patch-clamp with HEK293 cell; assay type: cell-based; settings: for IC50: dose-reactive test, read-out: Cav3.2 IC50 (parenthesized)
Sequence of human Cav3.2 (O95180 whole entry): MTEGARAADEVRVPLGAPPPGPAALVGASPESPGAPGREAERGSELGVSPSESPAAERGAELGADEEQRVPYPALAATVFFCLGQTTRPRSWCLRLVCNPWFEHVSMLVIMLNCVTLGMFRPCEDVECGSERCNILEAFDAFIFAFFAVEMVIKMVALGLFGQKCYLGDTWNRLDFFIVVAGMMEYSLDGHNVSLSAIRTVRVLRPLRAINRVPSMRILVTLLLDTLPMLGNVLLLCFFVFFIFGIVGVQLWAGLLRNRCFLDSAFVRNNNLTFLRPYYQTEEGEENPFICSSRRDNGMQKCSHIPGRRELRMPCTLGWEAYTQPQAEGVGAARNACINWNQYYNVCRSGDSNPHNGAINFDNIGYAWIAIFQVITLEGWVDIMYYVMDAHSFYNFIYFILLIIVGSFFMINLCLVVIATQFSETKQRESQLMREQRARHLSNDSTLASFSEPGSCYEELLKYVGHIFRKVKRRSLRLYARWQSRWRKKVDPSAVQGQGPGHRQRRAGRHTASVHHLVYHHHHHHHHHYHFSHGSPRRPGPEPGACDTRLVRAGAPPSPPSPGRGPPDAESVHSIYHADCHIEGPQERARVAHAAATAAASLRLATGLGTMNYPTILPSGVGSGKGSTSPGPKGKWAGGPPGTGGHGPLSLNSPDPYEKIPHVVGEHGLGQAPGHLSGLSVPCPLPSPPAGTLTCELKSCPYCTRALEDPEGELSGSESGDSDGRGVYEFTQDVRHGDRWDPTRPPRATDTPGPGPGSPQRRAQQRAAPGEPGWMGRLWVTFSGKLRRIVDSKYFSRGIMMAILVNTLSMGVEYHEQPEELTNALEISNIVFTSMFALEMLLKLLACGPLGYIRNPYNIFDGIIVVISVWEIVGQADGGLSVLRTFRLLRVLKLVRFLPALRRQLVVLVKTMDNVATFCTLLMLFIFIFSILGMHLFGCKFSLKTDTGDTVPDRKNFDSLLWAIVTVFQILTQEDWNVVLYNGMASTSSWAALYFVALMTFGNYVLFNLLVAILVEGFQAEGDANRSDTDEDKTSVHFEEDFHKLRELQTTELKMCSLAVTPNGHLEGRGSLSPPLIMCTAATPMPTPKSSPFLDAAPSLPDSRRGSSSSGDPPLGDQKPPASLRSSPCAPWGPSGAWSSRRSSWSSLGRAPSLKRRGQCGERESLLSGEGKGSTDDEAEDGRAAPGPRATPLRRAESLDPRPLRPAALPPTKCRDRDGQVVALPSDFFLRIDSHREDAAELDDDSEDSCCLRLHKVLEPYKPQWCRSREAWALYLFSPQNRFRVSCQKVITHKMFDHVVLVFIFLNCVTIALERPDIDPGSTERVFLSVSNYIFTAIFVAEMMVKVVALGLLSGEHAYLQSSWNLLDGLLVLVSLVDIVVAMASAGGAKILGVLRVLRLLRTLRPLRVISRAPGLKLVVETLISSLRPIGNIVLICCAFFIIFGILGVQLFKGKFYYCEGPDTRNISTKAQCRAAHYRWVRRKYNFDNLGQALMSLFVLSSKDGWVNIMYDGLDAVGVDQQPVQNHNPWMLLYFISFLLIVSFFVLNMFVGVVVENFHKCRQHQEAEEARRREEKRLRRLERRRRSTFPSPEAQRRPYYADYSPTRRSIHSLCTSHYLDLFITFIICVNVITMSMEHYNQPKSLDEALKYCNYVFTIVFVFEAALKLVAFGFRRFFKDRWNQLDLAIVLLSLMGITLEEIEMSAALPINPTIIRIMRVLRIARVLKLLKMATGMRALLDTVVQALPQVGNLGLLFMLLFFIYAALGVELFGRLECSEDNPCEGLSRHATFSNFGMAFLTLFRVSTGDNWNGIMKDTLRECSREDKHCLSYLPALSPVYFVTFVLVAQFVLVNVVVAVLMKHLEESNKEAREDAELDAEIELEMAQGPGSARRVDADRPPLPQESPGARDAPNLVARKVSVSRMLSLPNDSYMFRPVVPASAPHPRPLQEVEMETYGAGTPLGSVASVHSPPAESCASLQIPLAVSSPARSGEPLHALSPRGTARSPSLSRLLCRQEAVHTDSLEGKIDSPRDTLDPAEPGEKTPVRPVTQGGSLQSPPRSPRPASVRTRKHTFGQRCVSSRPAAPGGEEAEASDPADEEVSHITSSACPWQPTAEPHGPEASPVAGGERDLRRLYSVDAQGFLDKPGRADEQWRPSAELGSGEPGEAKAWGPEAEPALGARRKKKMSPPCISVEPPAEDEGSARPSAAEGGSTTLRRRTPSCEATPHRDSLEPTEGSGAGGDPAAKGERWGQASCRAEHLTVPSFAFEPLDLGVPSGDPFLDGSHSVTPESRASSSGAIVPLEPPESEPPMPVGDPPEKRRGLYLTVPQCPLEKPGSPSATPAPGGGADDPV
Procedure: (§1) The inhibitory activity of the present compounds for T-type calcium channel was measured by whole-cell patch-clamp method with HEK293 cell (vendor of HEK 293 cell: ATCC, Manassas, Va., USA, builder of expressing cell: ChanTest Corporation., Cleveland, Ohio, USA), in which human Cav3.1, human Cav3.2, or human Cav3.3 is expressed. The culture medium used for HEK293 cell was prepared by adding fetal bovine serum (10%), sodium penicillin G (100 U/mL), streptomycin sulfate (100 μg/mL), and G418 (500 μg/mL) to a mixture medium of Dulbecco's modified Eagle's medium/Ham's F-12 medium. The whole-cell current was evaluated with IonWorks Barracuda system and Population Patch Clamp (both are provided by Molecular Device Corporation, Union City, Calif., USA). The extracellular recording solution used during the recording was Hanks' balanced salt solution. The internal recording solution used herein was 50 mmol/L CsCl, 90 mmol/L CsF, 5 mmol/L MgCl2, 1 mmol/L glycol ether diamine tetraacetic acid (EGTA), and 10 mmol/L 4-(2-hydroxyethyl)piperazine-1-ethanesulfonic acid (HEPES (pH 7.2). The holding voltage was held at −90 mV, then changed to −65 mV. 60 seconds later, −20 mV pulse was added thereto for 200 millisecond to activate the channel on plasma membrane and generate calcium current. The calcium current was recorded with an amplifier of IonWorks Barracuda system, and analyzed with a program of the system (Version 2.0.2). The record of the calcium current was obtained twice, before and after the addition of the compound. In the measurement after adding the compound, the cells were exposed to the recording solution containing the compound for more than 5 minutes and then the current was measured. In the analyses, the ratio of current readout after the compound addition per current readout before the compound addition was calculated, the calculated value was subtracted from one, and the obtained value was converted to percentage. […] The value obtained from each compound was canonicalized based on the two ends of values to obtain each inhibitory rate. The positive control compound used herein was TTA-A2 which is known as T-type calcium channel inhibitor. IC50 value was calculated with Hill equation.
(§2) Each inhibitory rate (%) against T-type calcium channel at the evaluation concentration of the present compound (600 μmol/L) is shown in Table 12, in which the parenthesized values are IC50 values (μmol/L)) calculated from the dose-reactive test.

[5] = molecular target: human Cav3.3 (Homo sapiens (Human), UniProt Q9P0X4); test: as above; assay type: cell-based; settings: for IC50: dose-reactive test, read-out: Cav3.3 IC50 (parenthesized)
Sequence of human Cav3.3 (Q9P0X4 whole entry): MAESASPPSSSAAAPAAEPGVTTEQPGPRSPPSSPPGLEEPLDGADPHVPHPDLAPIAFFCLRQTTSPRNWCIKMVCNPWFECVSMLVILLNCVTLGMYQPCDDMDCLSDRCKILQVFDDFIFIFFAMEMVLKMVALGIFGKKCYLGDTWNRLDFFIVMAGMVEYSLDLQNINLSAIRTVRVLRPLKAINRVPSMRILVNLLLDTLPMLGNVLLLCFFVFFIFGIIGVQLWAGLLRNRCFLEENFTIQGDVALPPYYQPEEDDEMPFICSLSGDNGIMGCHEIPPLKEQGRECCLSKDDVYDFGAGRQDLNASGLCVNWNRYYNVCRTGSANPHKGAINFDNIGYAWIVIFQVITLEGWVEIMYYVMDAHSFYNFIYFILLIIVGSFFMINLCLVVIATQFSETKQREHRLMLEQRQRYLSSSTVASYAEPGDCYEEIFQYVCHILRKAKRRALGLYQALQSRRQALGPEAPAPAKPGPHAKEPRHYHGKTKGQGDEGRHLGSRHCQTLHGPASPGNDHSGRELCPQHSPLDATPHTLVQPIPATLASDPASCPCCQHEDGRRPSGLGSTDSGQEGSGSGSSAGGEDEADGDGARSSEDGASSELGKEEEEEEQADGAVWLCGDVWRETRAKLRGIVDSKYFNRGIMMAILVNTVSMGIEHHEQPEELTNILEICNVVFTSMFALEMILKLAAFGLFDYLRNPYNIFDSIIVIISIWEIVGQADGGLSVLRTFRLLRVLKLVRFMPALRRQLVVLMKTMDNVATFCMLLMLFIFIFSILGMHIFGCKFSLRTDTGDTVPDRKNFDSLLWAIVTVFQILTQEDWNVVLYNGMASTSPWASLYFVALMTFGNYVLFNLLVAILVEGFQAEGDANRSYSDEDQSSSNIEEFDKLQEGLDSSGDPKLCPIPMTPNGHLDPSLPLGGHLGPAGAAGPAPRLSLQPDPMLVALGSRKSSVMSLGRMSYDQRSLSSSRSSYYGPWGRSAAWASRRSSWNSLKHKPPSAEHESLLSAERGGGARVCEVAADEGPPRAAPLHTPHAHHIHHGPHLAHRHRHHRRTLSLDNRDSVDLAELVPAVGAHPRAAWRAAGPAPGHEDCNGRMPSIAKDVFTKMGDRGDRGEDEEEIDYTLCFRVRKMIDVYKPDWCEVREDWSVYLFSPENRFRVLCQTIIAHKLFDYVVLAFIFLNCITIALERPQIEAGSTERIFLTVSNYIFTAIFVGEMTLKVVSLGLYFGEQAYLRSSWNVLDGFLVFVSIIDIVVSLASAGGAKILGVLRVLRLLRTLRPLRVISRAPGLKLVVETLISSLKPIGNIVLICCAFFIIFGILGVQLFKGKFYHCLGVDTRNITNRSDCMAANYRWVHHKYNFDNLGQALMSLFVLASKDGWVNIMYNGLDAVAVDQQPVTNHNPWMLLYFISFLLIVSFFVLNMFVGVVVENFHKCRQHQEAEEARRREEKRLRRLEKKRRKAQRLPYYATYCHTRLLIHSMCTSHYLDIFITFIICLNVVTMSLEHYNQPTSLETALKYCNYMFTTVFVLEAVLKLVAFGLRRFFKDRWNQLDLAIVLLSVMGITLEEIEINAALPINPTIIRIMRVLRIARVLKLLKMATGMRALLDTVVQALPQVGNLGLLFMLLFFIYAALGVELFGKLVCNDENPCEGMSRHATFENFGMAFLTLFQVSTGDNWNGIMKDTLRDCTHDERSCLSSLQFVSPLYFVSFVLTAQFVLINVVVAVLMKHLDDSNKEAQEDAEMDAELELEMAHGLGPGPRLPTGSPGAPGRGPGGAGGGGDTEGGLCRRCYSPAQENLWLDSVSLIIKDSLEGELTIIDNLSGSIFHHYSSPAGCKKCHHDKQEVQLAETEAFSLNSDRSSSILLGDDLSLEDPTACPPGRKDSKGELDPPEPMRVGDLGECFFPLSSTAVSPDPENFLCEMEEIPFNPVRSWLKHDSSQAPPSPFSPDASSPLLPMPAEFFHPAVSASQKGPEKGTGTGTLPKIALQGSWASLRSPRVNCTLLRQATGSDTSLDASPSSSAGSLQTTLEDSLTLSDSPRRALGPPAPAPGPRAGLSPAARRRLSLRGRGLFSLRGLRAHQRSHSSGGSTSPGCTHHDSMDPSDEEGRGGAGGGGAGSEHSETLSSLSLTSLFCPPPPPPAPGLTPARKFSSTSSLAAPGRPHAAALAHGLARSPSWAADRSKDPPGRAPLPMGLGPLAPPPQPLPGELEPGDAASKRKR
Procedure: as §1, §2

[6] = molecular target: human Cav3.1 (Homo sapiens (Human), UniProt O43497); test: as above; assay type: cell-based; settings: for IC50: dose-reactive test, read-out: Cav3.1 IC50 (parenthesized)
Procedure: as §1, §2

SMILES: CC(c1noc2ccccc12)S(N)(=O)=O (stereo not drawn) [Example 1, 1-(Benzo[d]isoxazol-3-yl)ethane-1-sulfonamide]
- number of tremulous jaw movements [1]: significantly decreased the number of tremulous jaw movements per unit time
- harmaline-induced tremor intensity [2]: inhibited harmaline-induced tremor
- rotational number in the late phase (100-120 minutes) [3]: significantly increased the rotational number in the late phase
- Cav3.2 % inhibitory rate ([4]; 600 μmol/L): 33.0%
- IC50 [4]: 848 µM
- Cav3.3 % inhibitory rate ([5]; 600 μmol/L): 30.7%
- IC50 [5]: 922 µM
- Cav3.1 % inhibitory rate ([6]; 600 μmol/L): 46.0%
- IC50 [6]: 449 µM

SMILES: C[C@H](c1noc2ccccc12)S(N)(=O)=O [Example 13, (1R)-1-(1,2-benzoxazol-3-yl)ethane-1-sulfonamide]
- number of tremulous jaw movements [1]: significantly decreased the number of tremulous jaw movements per unit time
- harmaline-induced tremor intensity [2]: inhibited harmaline-induced tremor
- rotational number in the late phase (100-120 minutes) [3]: significantly increased the rotational number in the late phase
- inhibition at 600 µM ([4]; HEK293, 600 μmol/L, read-out: Cav3.2 % inhibitory rate): 42.6%
- IC50 [4]: 713 µM
- inhibition at 600 µM ([5]; HEK293, 600 μmol/L, read-out: Cav3.3 % inhibitory rate): 39.9%
- IC50 [5]: 746 µM
- inhibition at 600 µM ([6]; HEK293, 600 μmol/L, read-out: Cav3.1 % inhibitory rate): 50.9%
- IC50 [6]: 465 µM
